Data set [1] is described as follows: In vitro human cytotoxicity assay (resazurin). As to conditions: human, HeLa cells. On the technique in general: Alamar Blue is a resazurin reagent that responds to reducing activity.
Protocol: (§2) The compounds assayed for trypanocidal activity were also tested to determine if they caused adverse effects against human cells in vitro. For this assay, HeLa cells were used. The cells were cultured in DMEM supplemented with 10% fetal calf serum and antibiotics (penicillin/streptomycin/amphotericin B) at 37 °C in a 5 % CO2 incubator. Cells were plated at a density of 2 × 10^4 cells/well and after an overnight incubation the compounds were assayed for cytotoxic activity by adding three-fold serial dilutions of each compound (with a 100 µM starting concentration) to the 96-well plates, followed by incubation for 48 h. Cell viability was determined using the resazurin method [74]. Resazurin (0.5 mM in phosphate-buffered saline; 20 µL/well) was added to the cells and, after a 2-h incubation, fluorescence was read in a Spectramax M3 plate reader at excitation and emission wavelengths of 560 nm and 590 nm, respectively. Fluorescence readings were converted to percentage cell viability relative to control wells untreated with compounds. Plots of % cell viability versus log[compound] were used to determine IC50 values by non-linear regression using GraphPad Prism (version 5.02, GraphPad Software Inc., San Diego, USA). Three repeats of the experiment were carried out.
Data set [2] relates to T. b. brucei (strain Lister 427). Description: Trypanosoma in vitro inhibition assay (resazurin). The class given is cell-based. As to conditions: for anti-trypanosomal activity at single concentration: 20 µM, T. brucei BSF in culture; for IC50: blood stream form, 24 h + 24 h resazurin, mean ± SD of three independent experiments, read-out: IC50 against T. brucei BSF in culture. The method, then:
(§1) Compounds RUBi001, RUBi005, and RUBi015 were purchased from MCULE while RUBi002, RUBi004, RUBi007, RUBi008, RUBi010, RUBi011, RUBi012, RUBi014, RUBi016, and RUBi018 were obtained from MolPort (not all the compounds were commercially available). These compounds were assayed for trypanocidal activity by adding 20 μM of each compound to cultures of T. b. brucei (strain Lister 427) in 96-well plates. The parasites were maintained at 37 °C and 5% CO2 in an IMDM medium containing 25 mM HEPES, 10% fetal bovine serum, 1 mM hypoxanthine, 0.05 mM bathocuproine disulfonic acid, 1.5 mM cysteine, 1.25 mM pyruvic acid, 0.09 mM uracil, 0.09 mM cytosine, 0.16 mM thymidine, and 0.014 % 2-mercaptoethanol. Parasites were diluted to 2.4 × 10^4 cells in a volume of 200 µL per well and incubated with the test compounds for 24 h. Parasite percentage viability was determined using the resazurin method. Resazurin (0.5 mM in phosphate-buffered saline; 20 µL/well) was added to each well and incubation continued for a further 24 h, after which fluorescence (Ex560/Em590) was read in a Spectramax M3 microplate reader (Molecular Devices). Trypanocidal activity of the compounds was reported as the percentage of viable parasites in the compound-treated wells when compared to untreated controls (% viability). Pentamidine, an FDA-approved trypanocidal drug, was used as the control drug standard. For compounds that produced <20% viability, IC50 values were subsequently determined. The assays were conducted as described above, except that parasites were incubated with 3-fold serial dilutions of the test compounds and IC50 values derived from % parasite viability vs. log[compound] dose-response plots by non-linear regression analysis using GraphPad Prism (version 5.02, GraphPad Software Inc., San Diego, USA). IC50 evaluations were carried out on three independent occasions and the mean IC50 ± standard deviation is reported in the text. To assess compound interactions, the compounds were assayed for trypanocidal activity when used in combination with WR99210, a known TbDHFR inhibitor [42]. […] For isobologram analysis, the fractional inhibitory concentrations of the RUBi compounds and WR99210 were calculated by dividing the IC50s obtained for the compounds at the various combination ratios with the IC50 obtained for the compounds in the absence of the partner drug, and the FIC values plotted against each other, i.e., RUBi compound FIC versus WR99210 FIC.

The test system is the same in data set [3]. Put plainly: Isobologram combination assay with WR99210. The class given is cell-based. Particulars: ratios 75:25, 50:50, 25:75 with TbDHFR inhibitor WR99210. The method, then:
as §1

The nature of data set [4]: in vitro. As to conditions: human, HeLa cells.
Protocol: as §2
For data set [5], the system named is HeLa cells. Put plainly: In vitro human cytotoxicity assay (resazurin). Particulars: at 100 µM.
Protocol: as §2
Data set [6] has as its system T. brucei in culture. The arrangement: method as in PMID 16729575, PMID 16569852. Particulars: cited from earlier work.

The source of these data is publication PMC6337619, “Identification of Novel Potential Inhibitors of Pteridine Reductase 1 in Trypanosoma brucei via Computational Structure-Based Approaches and in Vitro Inhibition Assays” (Molecules, 2019).

The structures appear in SMILES notation. Values joined by “and” are separate entries in the source; they are usually repeats but may differ in a detail not shown here. Identical values can stand only once. “Also recorded” adds a separate entry of the source. Like-named read-outs stand apart in the source and are kept apart here.

One may read the IC50 as the concentration that inhibits the measured activity by half. On to `CC[C@H]1CN2CCc3cc(OC)c(OC)cc3[C@@H]2C[C@@H]1C[C@H]1NCCc2cc(OC)c(OC)cc21` [Emetine, reference compound], for which, in data set [1], the IC50 at 48 h came out at 0.013 µM.
Regarding `O=c1cc(-c2cccc(O)c2O)oc2ccc(O)cc12` [RUBi001, 2-(2,3-dihydroxyphenyl)-6-hydroxychromen-4-one], in data set [2], the “anti-trypanosomal activity at single concentration” value (“anti-trypanosomal activity” for short) is listed as “did not show anti-trypanosomal activity”.
On the same count and under the same terms, for `COc1ccc2oc3cc(OCC(=O)Nc4c(C)cccc4C)cc(O)c3c(=O)c2c1` [RUBi002, N-(2,6-dimethylphenyl)-2-(1-hydroxy-7-methoxy-9-oxo-xanthen-3-yl)oxy-acetamide] the value was “did not show anti-trypanosomal activity”.
Take `CC1=NN(c2ccc(C)cc2C)C(=O)/C1=C/NNC(=O)c1cccc([N+](=O)[O-])c1` [RUBi004, N'-{[1-(2,4-dimethylphenyl)-3-methyl-5-oxo-1,5-dihydro-4H-pyrazol-4-ylidene]methyl}-3-nitrobenzohydrazide]: half-maximal inhibition in data set [1] (IC50 at 48 h) was put at 23.6 ± 5.8 µM. Besides, in data set [2] (Trypanosoma brucei, 48 h), the IC50 amounted to 9.6 ± 3.2 µM. The “effect in combination with WR99210 (isobologram, FIC)” value (from here on “effect … (isobologram, FIC)”) in data set [3] is recorded as “reduced inhibition; also recorded: moderate to strong antagonism; also recorded: antagonistic effect”.
Consider `Cc1ccccc1OCC(=O)NNC(=S)NC(=O)c1ccccc1[N+](=O)[O-]` [RUBi005, 2-nitro-N-({2-[(2-methylphenoxy)acetyl]hydrazino}carbothioyl)benzamide], for which the “anti-trypanosomal activity” value in data set [2] is listed as “did not show anti-trypanosomal activity”.
The term viability denotes a read-out of living cells in per cent, often relative to untreated cells. A higher viability goes with better survival. `COc1ccc(NC(=O)CSc2nc3[nH]ncc3c(=O)n2-c2ccccc2)cc1` [RUBi007, N-(4-methoxyphenyl)-2-[(4-oxo-5-phenyl-4,5-dihydro-1H-pyrazolo[3,4-d]pyrimidin-6-yl)sulfanyl]acetamide] gave a viability at 48 h, 100 µM in data set [4] of over 90%. Further, in data set [5], the human cell cytotoxicity entry is recorded as “no significant human (human cervix adenocarcinoma (HeLa)) cell cytotoxicity”. Moreover, the IC50 in data set [2] (Trypanosoma brucei, 48 h) was 34.9 ± 17.1 µM. Besides, the “effect … (isobologram, FIC)” value in data set [3] was “reduced inhibition; also recorded: moderate to strong antagonism; also recorded: antagonistic effects”; in data set [3] (listed as RUB007), “antagonistic effect”.
As to `COc1cc(CNc2nc[nH]n2)ccc1OCc1cccc(C)c1` [RUBi008, [3-Methoxy-4-(3-methyl-benzyloxy)-benzyl]-(1H-[1,2,4]triazol-3-yl)-amine], the “anti-trypanosomal activity” value in data set [2] is on record as “did not show anti-trypanosomal activity”.
As to `Nc1ccc2nc(SCC(=O)N3CCCC3)sc2c1` [RUBi010, 2-{[2-oxo-2-(1-pyrrolidinyl)ethyl]sulfanyl}-1,3-benzothiazol-6-ylamine], the “anti-trypanosomal activity” value in data set [2] is reported as “did not show anti-trypanosomal activity”.
Still for that read-out and setting: to `Cc1ccc(NC(=O)Cn2c(-c3nonc3N)nc3ccccc32)cc1F` [RUBi011, 2-[2-(4-amino-1,2,5-oxadiazol-3-yl)-1H-benzimidazol-1-yl]-N-(3-fluoro-4-methylphenyl)acetamide] belongs “did not show anti-trypanosomal activity”.
Same read-out and setting: to `NS(=O)(=O)c1ccc(NC(=O)NC2CCCCC2)cc1` [RUBi012, 1-cyclohexyl-3-(4-sulfamoylphenyl)urea] belongs “did not show anti-trypanosomal activity”.
As to `O=C1CC(c2ccc(O)c(O)c2)Oc2cc(O)cc(O)c21` (stereo not drawn) [RUBi014, 2-(3,4-dihydroxyphenyl)-5,7-dihydroxy-3,4-dihydro-2H-1-benzopyran-4-one], the anti-protozoal activity entry in data set [6] is on record as “selectively anti-protozoal with activity against T. brucei in culture”. The IC50 at 48 h in data set [1] was found to be 32.9 ± 2.2 µM. The IC50 in data set [2] (Trypanosoma brucei, 48 h) was 14.6 ± 9.9 µM. Moreover, the “effect … (isobologram, FIC)” value in data set [3] is on record as “reduced inhibition; also recorded: moderate to strong antagonism; also recorded: antagonistic effect”.
`Cn1c(=O)c2ncn(CC(=O)Nc3ccc(O)cc3)c2n(C)c1=O` [RUBi016, 2-(1,3-dimethyl-2,6-dioxo-1,2,3,6-tetrahydro-9H-purin-9-yl)-N-(4-hydroxyphenyl)acetamide] displayed a viability at 48 h, 100 µM in data set [4] of over 90%. In addition, the human cell cytotoxicity result in data set [5] was “no significant human (human cervix adenocarcinoma (HeLa)) cell cytotoxicity”. Also, the IC50 in data set [2] (Trypanosoma brucei, 48 h) came out at 25.4 ± 4.7 µM. Further, the “effect … (isobologram, FIC)” value in data set [3] is “additive effect”.
With `O=C(CC1S/C(=N\N=C2CCCC2)N=C1O)Nc1ccccc1` (stereo not drawn) [RUBi018, 2-[2-(cyclopentylidenehydrazono)-4-hydroxy-2,5-dihydro-1,3-thiazol-5-yl]-N-phenylacetamide], the viability at 48 h, 100 µM in data set [4] is over 90%. Further, in data set [5], the human cell cytotoxicity result is given as “no significant human (human cervix adenocarcinoma (HeLa)) cell cytotoxicity”. The IC50 in data set [2] (Trypanosoma brucei, 48 h) worked out at 12.7 ± 3.7 µM. For the same compound, in data set [3], the “effect … (isobologram, FIC)” value is given as “reduced inhibition; also recorded: moderate to strong antagonism; also recorded: antagonistic effect”.
Regarding `CC1(C)N=C(N)N=C(N)N1OCCCOc1cc(Cl)c(Cl)cc1Cl` [WR99210, reference compound], the IC50 in data set [2] was 0.5 µM and 0.55 µM.
As for `N=C(N)c1ccc(OCCCCCOc2ccc(C(=N)N)cc2)cc1` [pentamidine, reference compound], in data set [2] (Trypanosoma brucei, 48 h), the IC50 worked out at 0.014 µM.
